System: brains, heart, liver, muscle, and DRG of the NHPs
Assay: Maturation of TTM-001 and TTM-002 capsids, NGS enrichment in NHP tissues
Assay type: in vivo
From the text: This Example describes maturation of the AAV9 capsid variants, TTM-001 (SEQ ID NO: 981 (amino acid) and 983 (DNA), comprising SEQ ID NO: 941 (encoded by SEQ ID NO: 942)) and TTM-002 (SEQ ID NO: 982 (amino acid) and 984 (DNA), comprising SEQ ID NO: […] (encoded by SEQ ID NO: 944)) in NHPs to further enhance their transduction and biodistribution in the central nervous system as well as other tissues, and evolve the AAV capsid variants to provide further cross-species compatibility. Two approaches were used to mature the TTM-001 and TTM-002 capsid sequences in order to randomize and mutate within and around the peptide insert comprised within loop IV of the capsid variant. […] In the first maturation approach, sets of three contiguous amino acids were randomized across the mutagenesis region in the TTM-001 and TTM-002 sequences, which spanned from position 450 to position 466, numbered according to SEQ ID NO: 981 and 982. In the second maturation approach, mutagenic primers were used to introduce point mutations at a low frequency, scattered across the mutagenesis region in the TTM-001 and TTM-002 sequences ranging from position 449 to position 466, numbered according to SEQ ID NO: 981 and 982. AAV capsid variants arising from each maturation approach for TTM-001 and TTM-002 were pooled together, for subsequent testing and characterization in NHPs.
The library of pooled matured AAV capsid variants generated using the first maturation approach and the second maturation approach for the TTM-001 and TTM-002 AAV capsid variants were injected into two NHPs. […] Following RNA recovery and RT-PCR amplification, a systematic NGS enrichment analysis was performed to calculate the fold enrichment ratio relative to an AAV9 control, and the peptides comprised within the variants were identified.
Following the RNA recovery and NGS analysis from the second maturation approach, approximately 680,000 capsid variants were identified. The 680,000 matured capsid variants were then filtered based on samples with a raw virus count greater than 10 and a coefficient of variance (CV) of less than 1, which was calculated for each peptide across the brain samples taken from the two NHPs. […] Using this filtering criteria, this led to approximately 64,000 matured capsid variants.

[1] = NHP DRG, NGS, relative to AAV9 control
[2] = NHP brain, NGS, relative to AAV9 control
[3] = NHP heart, NGS, relative to AAV9 control
[4] = NHP liver DNA, NGS, relative to AAV9 control
[5] = NHP liver RNA, NGS, TTM-001 and TTM-002 matured AAV capsid variants, relative to AAV9 control
[6] = NHP muscle, NGS, relative to AAV9 control
[7] = NGS fold-enrichment, DRG, NHP, relative to AAV9
[8] = NGS fold-enrichment, brain, NHP, relative to AAV9
[9] = NGS fold-enrichment, heart, NHP, relative to AAV9
[10] = NGS fold-enrichment, liver DNA, NHP, relative to AAV9
[11] = NGS fold-enrichment, liver RNA, NHP, relative to AAV9
[12] = NGS fold-enrichment, muscle, NHP, relative to AAV9

Sequence	Fold Enrichment relative to AAV9, DRG (NHP) [1]	Fold Enrichment relative to AAV9, Brain (NHP) [2]	Fold Enrichment relative to AAV9, Heart (NHP) [3]	Fold Enrichment relative to AAV9, Liver DNA (NHP) [4]	Fold Enrichment relative to AAV9, Liver RNA (NHP) [5]	Fold Enrichment relative to AAV9, Muscle (NHP) [6]	Fold Enrichment relative to AAV9, DRG (NHP) [7]	Fold Enrichment relative to AAV9, Brain (NHP) [8]	Fold Enrichment relative to AAV9, Heart (NHP) [9]	Fold Enrichment relative to AAV9, Liver DNA (NHP) [10]	Fold Enrichment relative to AAV9, Liver RNA (NHP) [11]	Fold Enrichment relative to AAV9, Muscle (NHP) [12]
KYSAGSGSPHSKAQNQQT (peptide inserted in AAV capsid)	0.000 fold	0.000 fold	0.000 fold	1.824 fold	41.310 fold	0.000 fold						
KTINGSGSPHSKSEQQQT	0.000 fold	0.000 fold	0.000 fold	1.769 fold	11.785 fold	0.000 fold						
KTINGSGSPHSWLKNQQT	0.000 fold	0.000 fold	0.000 fold	0.603 fold	13.995 fold	0.000 fold						
KTINGSGSPHSYMRNQQT	0.000 fold	0.000 fold	0.000 fold	2.293 fold	20.007 fold	0.000 fold						
KTINGRRSPHMKAQNQQT	0.000 fold	0.000 fold	0.000 fold	3.510 fold	12.136 fold	0.000 fold						
KTINGSGSPHSFTPNQQT	0.000 fold	0.000 fold	0.000 fold	1.036 fold	24.227 fold	0.000 fold						
KTINRYSSPHSKAQNQQT							0.000 fold	0.000 fold	0.000 fold	1.544 fold	10.926 fold	0.000 fold
KYVFGSGSPHSKAQNQQT (peptide inserted in AAV capsid)	0.000 fold	0.000 fold	0.000 fold	2.346 fold	22.232 fold	0.000 fold						
KTINGSGSPHSGKRNQQT	0.000 fold	0.000 fold	0.000 fold	5.396 fold	35.120 fold	0.000 fold						
KTINGSGSPHSKFRQQQT	0.000 fold	0.000 fold	0.000 fold	3.260 fold	38.665 fold	0.000 fold						
KTINGSGSPHWVAQNQQT	0.000 fold	0.000 fold	0.000 fold	3.634 fold	11.703 fold	0.000 fold						
KTINALRSPHSKAQNQQT	0.000 fold	0.000 fold	0.000 fold	1.655 fold	20.053 fold	0.000 fold						
KTINGSGSPHSKRNYQQT	0.000 fold	0.000 fold	0.000 fold	5.528 fold	12.781 fold	0.000 fold						
KTINGSGSPHSKQRPQQT	0.000 fold	0.000 fold	0.000 fold	2.347 fold	11.130 fold	0.000 fold						
KTINRQFSPHSKAQNQQT							0.000 fold	0.000 fold	0.000 fold	4.480 fold	10.275 fold	0.000 fold
KTINGSGSPHSFRPNQQT	0.000 fold	0.000 fold	0.000 fold	9.191 fold	44.801 fold	0.000 fold						
KTINGSGSPHSTCLNQQT	0.000 fold	0.000 fold	0.000 fold	4.762 fold	11.132 fold	0.000 fold						
KTINGSGSPHFPWQNQQT	0.000 fold	0.000 fold	0.000 fold	1.731 fold	53.587 fold	0.000 fold						
KTINGSGSPHSKACQFQT	0.000 fold	0.000 fold	0.000 fold	8.562 fold	17.640 fold	9.605 fold						
KTIFDCGSPHSKAQNQQT	0.000 fold	0.000 fold	0.000 fold	1.602 fold	27.844 fold	0.000 fold						

— patent publication US20260250318A1, “COMPOSITIONS AND METHODS FOR CROSSING THE BLOOD BRAIN BARRIER” (VOYAGER THERAPEUTICS, INC., priority 2022, published 2026)
